Reference: ChEMBL document CHEMBL1136907, “Structural insight into human CK2alpha in complex with the potent inhibitor ellagic acid” (Bioorg Med Chem Lett, 2009)

Key:
[1] = Inhibition of rat liver CK2 catalytic activity
[2] = Inhibition of PKC
[3] = Inhibition of rat liver CK2 by Lineweaver-Burke double reciprocal plot analysis
[4] = Inhibition of PKA

IC50 [1]: 40 nM
IC50 [2]: 8000 nM
Ki [3]: 20 nM
IC50 [4]: 2000 nM
Structure (SMILES): O=c1oc2c(O)c(O)cc3c(=O)oc4c(O)c(O)cc1c4c23 [ELLAGIC ACID]
